# Patent US20020028255A1, “Pesticide treatment” (priority 1998, published 2002)
# Experiments:
# [1] = Kinetics of decomposition of the dione in water in the presence of chlorine (ppm); assay type: physicochemical
# Description: (A) The kinetics of the decomposition of 2-cyano-3-cyclopropyl-1-(2-methylsulphonyl-4-trifluoromethylphenyl)propan-1,3-dione in water was studied. The following Table summarizes the results obtained at pH7 or pH9 in the presence of 0.1 or 0.5 ppm of chlorine. The percentages given are of degradation of the dione to the corresponding benzoic acid, 2-methylsulphonyl-4-trifluoromethyl-benzoic acid.
# [2] = Vials of dione solution in water (500 ppt) treated with water containing chlorine (ppb); assay type: physicochemical; settings: dione 500 ppt, ambient temperature
# Procedure: (B) Vials containing 1 ml of solutions in water of the dione used in (A) (at a concentration of 500 ppt) were treated at ambient temperature with 1 ml of water containing 0.1 or 0.5 ppb concentrations of chlorine.
# [3] = Decomposition of DKN in bleach, followed by TLC; assay type: physicochemical; settings: 1 g in 25 ml bleach (14 to 15% chlorine), ambient temperature, after 30 minutes
# Procedure: 2-Cyano-3-cyclopropyl-1-2-methylsulphonyl-4-trifluoromethylphenyl)propan-1,3-dione(DKN:1 g) was added to 25 ml of bleach (containing 14 to 15% chlorine). The mixture was stirred at ambient temperature. After 3 minutes a clear solution formed. […] The main product was the corresponding benzoic acid.
# [4] = Cleaning of a contaminated 1000 l tank with sodium hypochlorite solution; assay type: physicochemical; settings: tank wet with 0.02% (w/w) suspension; 10 l of 0.01% (w/w) sodium hypochlorite, one hour
# Description: A 1000 l container or tank was used to prepare a suspension of dione pesticide (2-cyano-3-cyclopropyl- 1-(2-methylsulphonyl-4-trifluoromethylphenyl)propan-1,3-dione). The suspension was used to destroy the weeds in a crop growing area. The container was then still wet with aqueous suspension of 0.02% (w/w) of the pesticide.
# 10 l of 0.01% (w/w) solution of sodium hypochlorite is poured into the tank and stirred (so as to contact the whole inner surface of the container) and left for one hour.
# Example 3 is repeated except that the pesticide is an isoxazole (5-cyclopropyl-4-(2-methylsulphonyl-4-trifluoromethylbenzoyl)isoxazole;IFT) and the pH of the hypochlorite solution is 8.5 (adjusted using NaOH).
# [5] = test system: Maize (Pioneer 3394) seeds; experiment: Damage (bleaching of the shoot) to maize seeds bathed in herbicide solutions, control vs hypochlorite-sterilized seed; assay type: in vivo; settings: for damage to maize: low concentration
# Procedure: Maize (Pioneer 3394) seeds were placed in a solution of 1% (w/w) sodium hypochlorite for 30 seconds, then rinsed thoroughly for 5 minutes with sodium bicarbonate solution (5% w/w).
# Replicates of 20 seeds from each treatment were placed in petri dishes and bathed in 25 ml of the following solutions for 24 hours (covered and incubated at 25° C. in a growth cabinet).
# After 24 hours the seeds were removed from the bathing solutions, rinsed thoroughly in water and planted (in green light- as some of the seeds had started to produce a coleoptile which is sensitive to daylight). Seeds were planted in duplicate in 10 cm×10 cm pots containing non-sterile loam and were overhead watered 3 times daily.
# Assessments were made 7 and 14 DAT (days after treatment).
# [6] = control seed, 1.0 μg ml^−1, bathed 24 hours
# [7] = control seed, 10.0 μg ml^−1, bathed 24 hours
# [8] = sterilized seed (1% sodium hypochlorite), 1.0 μg ml^−1, bathed 24 hours
# [9] = sterilized seed (1% sodium hypochlorite), 10.0 μg ml^−1, bathed 24 hours
smiles,measurement,setting,value
CS(=O)(=O)c1cc(C(F)(F)F)ccc1C(=O)C(C#N)C(=O)C1CC1 (stereo not drawn) [DKN],degradation of the dione to the corresponding benzoic acid,"[1]; pH 7, Cl2 0.1 ppm, 15 min",100%
same,degradation of the dione to the corresponding benzoic acid,"[1]; pH 7, Cl2 0.5 ppm, 15 min",100%
same,degradation of the dione to the corresponding benzoic acid,"[1]; pH 9, Cl2 0.1 ppm, 15 min",50%
same,degradation of the dione to the corresponding benzoic acid,"[1]; pH 9, Cl2 0.1 ppm, 60 min",100%
same,degradation of the dione to the corresponding benzoic acid,"[1]; pH 9, Cl2 0.5 ppm, 15 min",100%
same,degradation of the dione,"[2]; pH 5, Cl2 0.1 ppb, 15 min",100%
same,degradation of the dione,"[2]; pH 5, Cl2 0.5 ppb, 15 min",100%
same,degradation of the dione,"[2]; pH 7, Cl2 0.1 ppb, 15 min",100%
same,degradation of the dione,"[2]; pH 7, Cl2 0.5 ppb, 15 min",100%
same,degradation of the dione,"[2]; pH 9, Cl2 0.1 ppb, 60 min",>90%
same,degradation of the dione,"[2]; pH 9, Cl2 0.5 ppb, 15 min",100%
same,DKN remaining by thin layer chromatography,[3],no DKN was detected
same,disappearance of pesticide from the tank,[4],All of the dione pesticide disappeared
same,% Damage (bleaching of the shoot),[5]; [6],0%
same,% Damage (bleaching of the shoot),[5]; [7],0%
same,% Damage (bleaching of the shoot),"[5]; control seed, 100.0 μg ml^−1, bathed 24 hours",87%
same,damage to maize,[5]; 1 μg ml^−1,No damage
same,% Damage (bleaching of the shoot),[5]; [8],0%
same,% Damage (bleaching of the shoot),[5]; [9],0%
same,% Damage (bleaching of the shoot),"[5]; sterilized seed (1% sodium hypochlorite), 100.0 μg ml^−1, bathed 24 hours",11%
"CS(=O)(=O)c1cc(C(F)(F)F)ccc1C(=O)c1cnoc1C1CC1 [IFT, 5-cyclopropyl-4-(2-methylsulphonyl-4-trifluoromethylbenzoyl)isoxazole]",% Damage (bleaching of the shoot),"[5]; control seed, 0.1 μg ml^−1, bathed 24 hours",0%
same,% Damage (bleaching of the shoot),[5]; [6],20%
same,% Damage (bleaching of the shoot),[5]; [7],98%
same,damage to maize,[5]; 0.1 μg ml^−1,No damage
same,% Damage (bleaching of the shoot),"[5]; sterilized seed (1% sodium hypochlorite), 0.1 μg ml^−1, bathed 24 hours",0%
same,% Damage (bleaching of the shoot),[5]; [8],13%
same,% Damage (bleaching of the shoot),[5]; [9],100%
